Key:
FGF23 in plasma = experiment: Measurement of concentration of FGF23 in plasma by ELISA method in HP model mice; format: in vivo, mice (C57BL/6N); conditions: mice on diet with high phosphorus content 4 weeks; 10 mg/kg intraperitoneally weekly, five times; vs physiological saline; p=0.049
Protocol: The concentration of FGF23 in plasma was measured using an ELISA kit sold by KAINOS Laboratories, Inc. (TCY4000). A plasma sample cryopreserved in a freezer was thawed on ice, and the sample undiluted or the sample diluted 5-fold with standard solution 1 (FGF-23 concentration, 0 pg/ml) supplied with the kit was used for measurement.
50 μl of the diluted sample or a sample for a calibration curve was added to each well of an ELISA plate supplied with the kit. The plate was sealed, followed by stirring and incubating at room temperature for 2 hours. After the two hours, the sample in each well was aspirated and discarded. 300 μl of a wash solution supplied with the kit was then added to each well, and the wash solution was removed. This operation was performed four times. After the wash solution was thoroughly removed, 100 μl of an enzyme-labeled antibody solution (FGF-23 Conjugate) supplied with the kit was added to each well, and the plate was sealed, followed by stirring and incubating at room temperature for 1 hour. After the 1 hour, the sample in each well was aspirated and discarded. […] Absorbance at 450 nm was then measured with an absorbance microplate reader (Multiskan GO, Thermo Fisher Scientific Inc.). The concentration of FGF23 in plasma was calculated by making a calibration curve from the measurement result of recombinant FGF23 supplied with the kit.

FGF23 gene (the skull) = experiment: qRT-PCR of FGF23 in the skull of HP model mice given soluble human Oscar-Fc fusion protein; format: in vivo, mice (C57BL/6N); conditions: mice on diet with high phosphorus content (2% inorganic phosphorus) 4 weeks; 10 mg/kg intraperitoneally weekly, five times; vs physiological saline; normalized to Maea; p=0.026; n=5 to 6
Excerpt: (§1) Subsequently, the mixture was vortexed vigorously for 15 seconds.

Fgg gene (kidneys) = experiment: qRT-PCR of Fgg gene (fibrinogen) in the kidneys of HP model mice given soluble Oscar-Fc fusion protein; format: in vivo, mice (C57BL/6N); conditions: HP4W_sOscar vs HP4W_NS; diet with high phosphorus content 4 weeks; p=0.00071; n=5 to 6
Excerpt: as §1
To evaluate the effect of the soluble Oscar-Fc fusion protein on kidney function, the expression of a kidney function marker was confirmed in the kidneys of HP4W_NS, HP4W_sOscar, and LP4W of Reference Example 2.

[1] = tested on: PRP genes (Prb1, Prh1, Prp2, and Prpmp5) (the parotid glands); conditions: mice on diet with high phosphorus content 4 weeks; 10 mg/kg intraperitoneally weekly, five times; vs physiological saline; n=5 to 6
Protocol: After the wet weights of the collected organs and tissue were measured, the organs and tissue were rapidly frozen in liquid nitrogen and stored at −80° C.

Substance: soluble human Oscar-Fc fusion protein: Soluble human Oscar-Fc fusion protein of SEQ ID NO: 2 (human Oscar sequence, hinge, human IgG1); inhibits ligand binding to Oscar
- increase in the concentration of FGF23 in plasma (ELISA) (FGF23 in plasma): statistically significantly suppressed
- expression of FGF23 in the skull (qRT-PCR) (FGF23 gene (the skull)): suppressed
- expression of the Fgg gene in the kidneys (qRT-PCR) (Fgg gene (kidneys)): significantly suppressed
- expression of PRP genes (Prb1, Prh1, Prp2, and Prpmp5) in the parotid glands (qRT-PCR) [1]: suppressed

From patent US12091701B2, “Screening method for candidate substances for active component to prevent or treat at least one disease selected from the group consisting of renal hypofunction, chronic kidney disease and kidney failure” (KARYDO THERAPEUTIX, INC., priority 2016, dated 2024)
